Results reported in article PMC5444695, “CM363, a novel naphthoquinone derivative which acts as multikinase modulator and overcomes imatinib resistance in chronic myelogenous leukemia” (Oncotarget, 2016).

Columns and labels:
Type in all cases: cell-based
[1] = test system: Stat3 response element; experiment: Stat3 luciferase reporter gene assay in HeLa/Stat3-luc cells; conditions: 1 h pretreatment then IL6 7 h
[2] = test system: MOLM.13 cells; experiment: MTT cell viability assay, MOLM.13 cells; conditions: Homo sapiens, MOLM.13, 48 h, read-out: IC50 (μM) Mean ± SD
Description: All cell lines were purchased from the American Type Culture Collection (ATCC). The cell lines were growth at 37°C under 5% CO2 under humidified atmosphere. The cell lines K562 (derived from patients during the blast crisis phase of CML and IM sensitive), K562-R (IM resistance human CML), KmycBT15I (KBTI; IM resistant human CML, expressing the Bcr-Abl […] mutant), HEL (human erythroleukemia), HL60 (human acute myeloid leukemia), MOLM-13 (human acute myeloid leukemia), MV4.11 (human acute monocytic leukemia), HCT-15 (human colorectal adenocarcinoma), PC3 (human prostate cancer), MCF7 (human breast cancer), NCTC3749 (mouse lymphoma) as well as the MRC.5 cells (non-malignant human lung fibroblasts) were maintained in RPMI-1640 medium. The cell lines L1210 (mouse lymphocytic leukemia cells), Raw (mouse macrophage), HeLa (human epithelial cervix cancer), U-2 OS (human osteosarcoma), MG63 (human osteosarcoma) and T47D (human breast cancer adenocarcinoma) were maintained in DMEM. HEK293 cells stably expressing the GH receptor (HEKGHR) were maintained in DMEM-F12 medium. […]
Cells were seeded in 96-well plates (BD Falcon, France) at exponential growth density (5000–20000 cells/well) and treated with vehicle (0.05% DMSO) or compound (0.01 to 10 μM) for 48–72 h. […] Optical density was measured at 595 nm with the iMark Microplate Reader (BioRad, CA, USA).

[3] = test system: pTyr694-Stat5 (pYStat5); experiment: Immunoblotting of constitutive pYStat5 in K562 cells; conditions: Homo sapiens; K562, 3 μM CM363, 3 h
Description: Then, cells were rinsed with cold PBS-vanadate (1 mM) followed by preparation of whole lysis extract with RIPA (Pierce, Illinois, USA). Equal amounts of each sample were separated by SDS-PAGE and transfered onto nitrocellulose membranes. After being blocked with 1% BSA-1% Blotto (anti-phospho-antibodies) (Santa Cruz Biotechnology, CA, USA) or 5% blotto (anti-total-antibodies) (Santa Cruz Biotechnology, CA, USA) (both diluted in Tris buffered saline with 0.05% Tween 20), membranes were immunoblotted overnight at 4°C with dilution (1:1000) in the same buffer of blocking of primary phosphoprotein or total protein antibodies. […] To control for differences in loading and transfer efficiency across membranes, membranes were incubated with a monoclonal mouse anti-beta actin antibody (Santa Cruz Biotechnology, CA, USA). The phosphoprotein array analysis of K562 cells was carried out by using the Profiler Human Phospho-Kinase Array Kit ARY003B (R&D Systems, Minneapolis, MN, USA) according to the manufacturer`s instructions.

With N#Cc1ccc(C2C3=C(CCCC3=O)OC3=C2C(=O)c2ccccc2C3=O)cc1 (stereo not drawn) [CM363, 4-(1,6,11-trioxo-2,3,4,6,11,12-hexahydro-1H-benzo[b]xanthen-12-yl)benzonitrile] the “Stat3-dependent reporter gene (luciferase) activity” value [1] was “inhibit”, the IC50 [2] was 0.7 ± 1.1 µM and the inhibition at 3 µM [3] was 20%.
